Results as given in patent publication US20240082285A1 (priority 2022, published 2024).

Columns and labels:
[1] = system: Wa strain RV; test: Effect against RV synthesis (drug after virus), CCK-8 viral inhibition rate; type: cell-based, Rotavirus; settings: 48 h; for effect of synthesis inhibition on RV: MA104-2 cells, 100 TCID50 virus
Experimental: 100 TCID50 virus solution (the virus acts with 10 μg/mL pancreatin for 30 min) is added to the 96-well culture plate of the MA104-2 cells that grow to the single layer, and each well contains 100 μL. The cells have been washed twice with PBS. Normal cell control is set, and added with an equal volume of DMEM. Incubation is conducted at 37° C. and 5% CO2 for 2 h. Then, the virus solution is sucked out and added into different concentrations of drug solution and ribavirin respectively, and each well contains 100 μL. Virus control is set. Only the cell maintenance solution is added, and each well contains 100 μL. Incubation is conducted at 37° C. and 5% CO2 for continuous observation. After continuous culture for 48 h, CCK-8 kit is used for detection. 1/10 volume of CCK-8 solution is added to each well, and incubated in the incubator. After 90 min, the absorbance is detected and recorded at 450 nm wavelength. The viral inhibition rate of the drug is calculated, and the experiment is repeated for 3 times. The formula of the viral inhibition rate is:
(§1) {(Adrug group−Avirus group)/(Anormal group−Avirus group)×100%}.

[2] = system: Wa strain RV; test: Effect against RV adsorption (drug before virus), CCK-8 viral inhibition rate; type: cell-based, Rotavirus; settings: MA104 cells, 1 μM, 5 μM and 10 μM, compared with ribavirin group
Experimental: The 96-well culture plate of the MA104 cells that grow to the single layer is added with the drug solution. Each drug solution is repeated with 6 wells, and each well contains 100 μL. An equal volume of ribavirin is added to the positive control group, and only an equal volume of DMEM culture solution (without serum) is added to the normal cell control group and the viral control group. Incubation is conducted at 37° C. and 5% CO2 for 2 h. The drug solution is sucked out. Except the normal cell control group, 100 TCID50 virus is added (the virus acts with 10 μg/mL pancreatin at 37° C. for 30 min), and each well contains 100 μL. Incubation is conducted at 37° C. and 5% CO2 for 2 h. The virus is sucked out, the cell maintenance solution is added, and each well contains 200 μL. Incubation is conducted at 37° C. and 5% CO2 for continuous observation. After culture for 48 h, CCK-8 kit is used for detection. 1/10 volume of CCK-8 solution is added to each well, and incubated in the incubator. After 90 min, the absorbance is detected and recorded at 450 nm wavelength. The experiment is repeated for 3 times. The formula of the viral inhibition rate is:
as §1

[3] = system: VP6 gene; test: Gene expression of structural protein VP6 in RV-infected MA104 cells, real-time quantitative PCR; type: cell-based, Rotavirus; settings: 1 μM, 5 M and 10 μM, compared with RV group, most significant at 5 μM
Excerpt: The Experimental Method is as Follows: • (1) Extraction and quantification of total RNA; • (2) Primer sequence design; • (3) Reverse transcription reaction; • (4) SYBR Green I fluorescent labeling is used for real-time quantitative PCR detection of expression of VP6 gene.

[4] = system: Wa strain RV; test: Direct killing effect on RV (drug mixed with virus), CCK-8 viral inhibition rate; type: cell-based, Rotavirus; settings: MA104 cells, 100 TCID50 virus, 48 h; inhibition rate lower than ribavirin group
Experimental: The drug is mixed with 100 TCID50 virus solution (the virus acts with 10 μg/mL pancreatin for 30 min) at an equal volume for 2 h. After the cells are washed twice with PBS, the cells are added to the 96-well culture plate of the MA104 cells that grow to the single layer. In the positive control group, the same operation as above is conducted for ribavirin and RV, and only an equal volume of DMEM (without serum) is added to the normal cell control group and the viral control group. Incubation is conducted at 37° C. and 5% CO2 for 2 h. Then, the mixed solution is sucked out, the cell maintenance solution is added, and each well contains 100 μL. Incubation is conducted at 37° C. and 5% CO2 for continuous observation. After culture for 48 h, CCK-8 kit is used for detection. 1/10 volume of CCK-8 solution is added to each well, and incubated in the incubator. After 90 min, the absorbance is detected and recorded at 450 nm wavelength. The viral inhibition rate of the drug is calculated, and the experiment is repeated for 3 times. The formula of the viral inhibition rate is:
as §1

[5] = system: MA104 cells; test: Toxicity of Chebulinic acid to MA104 cells by CCK8 method; type: cell-based; settings: 48 h
Experimental: According to the common drug concentration range of Chebulinic acid, the cytotoxicity pre-experiment is performed between 1 μM and 25 μM in this experiment. The MA104 cells at the logarithmic growth stage are observed under a microscope. The cellular morphology is uniform and full with clear edges, and when the number reaches 80%, digestion, centrifugation and re-suspension are conducted. After further dilution of the suspension, […] is taken on a blood cell counting plate to count and calculate the required cell volume. Then, the cells are laid in a 96-well plate, 100 µL of cell suspension is added to each well, and the cell density is 8×10^4 cells/mL. When the cells adhere to the wall to form a single layer, the drug group is administered, and the normal group is added with an equal volume of DMEM (without serum). After incubation for 48 h, the cytotoxicity of Chebulinic acid is detected by CCK8 reagent. 1/10 volume of CCK8 solution is added to each well and incubated in an incubator. After 90 min, the absorbance is detected and recorded under the condition of oscillation for 10 s and at 450 nm wavelength. The formula for the relative survival rate of the cells is:
{(Axpenmentai group−Ablank)/(Acontrol group−Ablaimk)×100%}.

[6] = Rotavirus, read-out: anti-RV inhibition rate (synthesis)

Structure (SMILES) | effect of synthesis inhibition on RV [1] | inhibition at 1 µM [1, 6] | inhibition at 5 µM [1, 6] | inhibition at 10 µM [1, 6] | anti-RV adsorption effect [2] | VP6 expression [3] | direct killing effect on RV [4] | drug toxicity to the cells ([5]; 1 μM to 10 μM) | average survival rate ([5]; Chebulinic acid 1 μM to 10 μM)
O=C(O)C[C@@H]1C(=O)O[C@H]2[C@H](OC(=O)c3cc(O)c(O)c(O)c3)[C@@H](OC(=O)c3cc(O)c(O)c4c3[C@H]1[C@H](O)C(=O)O4)[C@H](OC(=O)c1cc(O)c(O)c(O)c1)O[C@@H]2COC(=O)c1cc(O)c(O)c(O)c1 [Chebulinic acid] | obvious effect of synthesis inhibition | 80% | 75.3% | 61.9% | no obvious anti-RV adsorption effect | significantly decreased | no obvious direct killing effect | no drug toxicity | above 95%
NC(=O)c1ncn([C@@H]2O[C@H](CO)[C@@H](O)[C@H]2O)n1 [ribavirin, reference compound] | obvious effect of synthesis inhibition |  |  |  |  |  |  |  | 
